The values that follow come from US7666901B2, “Analogs of 17-hydroxywortmannin as PI3K inhibitors” (Wyeth, priority 2004, dated 2010).

In brackets after ≈: the same amount, converted by molar mass. Bounds are passed on as bounds.

Assay [1] has as its system phosphor-AKT (S473) in Rat1 cells. Description: Rat1-IGF1 assay (IGF-1 induced phospho-AKT immunoblot). Conditions: Rattus norvegicus. Format: cell-based, rat. The protocol: Rat1 cells are plated in 6-well culture plates and serum-starved for 24 hours. Serum-starved cells are treated either with control vehicle or with various concentrations of 17-HWT for 2 hours, stimulated by IGF-1 (100 ng/mL) for 30 minutes. Total cellular lysates are prepared using NuPAGE-LDS sample buffer (Invitrogen), sonicated and then clarified by centrifugation. Equal amounts of proteins are subject to immunoblotting analysis using NuPAGE electrophoresis system and probed with phosphor-AKT (S473), total AKT antibodies (Signaling Technology).
A general note: Immunoblotting shows a protein as a band on a membrane.

Assay [2] concerns DU145 (human prostate carcinoma/lymphocytic leukemia). Kind of assay: Cell proliferation (MTS) assay, DU145. It is filed as cell-based. Conditions: Homo sapiens, DU-145, 72 h, three days treatment. A digest of the protocol: (§1)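 Cells plated at about 3000 per well in RPMI-1640/10% FBS were dosed with compound one day later. Viability was read by MTS conversion (absorbance 490 nm, 1–2 h) three days after treatment began. Effect is expressed as percent of vehicle-treated growth on the same plate.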

Another assay relates to T1, PI3K.
T1 construct: PI3K FP IC50
Description: Fluorescence polarization assay for PI3K. Format: biochemical. Conditions: for IC50: Table 2. The protocol:
This assay is used to determine the IC50 of compounds of the present invention as it identifies inhibitors of PI3 kinase by measuring inhibition.
The assay is run by placing 5 μL of diluted enzyme per well, then 5 μL of diluted compound (or 9.5 μL enzyme then 0.5 μL compound in DMSO) is added and mixed. Then, 10 μL substrate is added to start the reaction. The samples are incubated 30-60 minutes, then the reaction is stopped by adding 20 μL stop/detector mix.
PI3K is diluted with reaction buffer (e.g., 5 μL or 7.5 μL PI3K into 620 μL reaction buffer), and 5 μL of diluted enzyme is used per well. 5 μL reaction buffer or drug diluted in buffer (e.g., 4 μL/100 so final DMSO is 1% in reaction) is added to each. The samples are mixed by pipetting up and down. Alternatively, the enzyme can be diluted to 1215 μL. In this case 9.8 μL is added per well and 0.2 μL compound is added in DMSO.
To prepare 1 mL of substrate solution, 955 μL reaction buffer, 40 μL PIP2, and 2.5 μL ATP are mixed. 10 μL of substrate is added to each well to start the reaction.
Stop/detector mix is prepared by mixing 4 μL Red detector and 1.6 μL or 2.0 μL GST-GRP with 1 mL Stop buffer, which results in 10 nM probe and 70 nM GST-GRP). 20 μL of the stop/detector mix is added to each well to stop the reaction. The plates are read after 30-90 minutes keeping the red probe solutions dark.
For the zero time point, stop/detector mix is added to the enzyme just before adding substrate. For an extra control, stop/detector mix is added to buffer (no enzyme) and substrate or to just buffer (no substrate).
The recommended reaction has 0.06 μL per 20 μL (0.015 μg/20 μL) or 0.01125 μg/15 μL or 0.75 μg/mL.
Plates are read on machines with filters for Tamra. The units are mP with no enzyme controls reading app 190-220 mP units. Fully active enzyme reduces fluorescence polarization down to 70-100 mP after 30 minutes. An active cpd raises the mP values halfway to control or to 120-150 mP units.

Another assay deals with T2, Human TOR (Homo sapiens, UniProt P42345).
T2 construct: FLAG
Description: Human TOR (mTOR) kinase assay, DELFIA format. Format: biochemical. An outline of the steps: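 Purified FLAG-TOR (800 ng/mL) phosphorylates His6-S6K ([…]) with […] ATP in Hepes pH 7.4 buffer containing MnCl2, 2 h at room temperature. Phospho-Thr389 S6K detected by DELFIA using Europium-labelled anti-P(T389)-p70S6K antibody; enzyme inhibition calculated from signal.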

Assay [3] has as its system MDA468 (human breast cancer cell). Kind of assay: Cell proliferation (MTS) assay, MDA468. It is filed as cell-based. As to conditions: Homo sapiens, 72 h, three days treatment. An outline of the steps: as §1
The test system of assay [4] is MDA435 (human breast adenocarcinoma). Kind of assay: Cell proliferation (MTS) assay, MDA435. As to conditions: Homo sapiens, MDA435, 72 h, three days treatment. It is filed as cell-based. An outline of the steps:
as §1

For assay [5], the system named is LNCaP (human prostate carcinoma). Kind of assay: Cell proliferation (MTS) assay, LNCaP. Format: cell-based. Conditions: Homo sapiens, LNCaP, 72 h, three days treatment. A digest of the protocol:
as §1

For orientation: IC50 means the concentration needed to halve the response being measured.

As to `COC[C@H]1OC(=O)/C(=C/Nc2ccccc2)C2=C(O)C(=O)C3=C([C@H](OC(C)=O)C[C@]4(C)[C@@H](O)CC[C@@H]34)[C@]21C` [Compound 3, (1E,4S,4aR,5R,6aS,7S,9aR)-1-(anilinomethylene)-7,11-dihydroxy-4-(methoxymethyl)-4a,6a-dimethyl-2,10-dioxo-1,2,4,4a,5,6,6a,7,8,9,9a,10-dodecahydroindeno[4,5-h]isochromen-5-yl acetate], the IC50 in assay [1] (Table 1) is over 0.1 mg/L; in assay [2] (Table 1), 12 mg/L; against Human TOR (Table 1), 9.17 µM; in assay [3] (Table 1), 5 mg/L; in assay [4] (Table 1), 15 mg/L; in assay [5] (Table 1) it was 3.5 mg/L. In the assay with PI3K (Table 1), the “PI3K FP IC50” value turned out to be 0.228 mg/L.
As to `COCC1OC(=O)C(=CN(CCO)CCO)C2=C(O)C(=O)C3=C(C(OC(C)=O)CC4(C)C(O)CCC34)C21C` (stereo not shown) [Compound 19, Acetic acid 4-{[bis-(2-hydroxy-ethyl)-amino]-methylene}-6,17-dihydroxy-1-methoxymethyl-10,13-dimethyl-3,7-dioxo-1,3,4,7,10,11,12,13,14,15,16,17-dodecahydro-2-oxa-cyclopenta[a]phenanthren-11-yl ester], the 50% inhibitory concentration (IC50) in assay [1] (Table 2) is over 0.1 mg/L; in assay [2] (Table 2) it was 1.7 mg/L (≈ 3.17 µM); in the assay with PI3K, 0.918 µM; at Human TOR (Table 2) it was over 18.7 µM; in assay [3] (Table 2) it was 1.2 mg/L (≈ 2.24 µM); in assay [4] (Table 2) it was 6 mg/L (≈ 11.2 µM). The IC50 in assay [5] (Table 2) was determined as 0.07 mg/L (≈ 0.131 µM).
For `COCC1OC(=O)C(=CN(C)C(C)(C)C)C2=C(O)C(=O)C3=C(C(OC(C)=O)CC4(C)C(O)CCC34)C21C` (stereo not shown) [Compound 20, Acetic acid 4-[(tert-butyl-methyl-amino)-methylene]-6,17-dihydroxy-1-methoxymethyl-10,13-dimethyl-3,7-dioxo-1,3,4,7,10,11,12,13,14,15,16,17-dodecahydro-2-oxa-cyclopenta[a]phenanthren-11-yl ester], the 50% inhibitory concentration (IC50) in assay [1] (Table 2) was over 0.1 mg/L; in assay [2] (Table 2), 1.1 mg/L (≈ 2.13 µM); in the assay with PI3K it was 0.44 µM; on Human TOR (Table 2) it was over 19.3 µM; in assay [3] (Table 2), 0.62 mg/L (≈ 1.2 µM); in assay [4] (Table 2), 5 mg/L (≈ 9.66 µM). In addition, the IC50 in assay [5] (Table 2) is 0.06 mg/L (≈ 0.116 µM).
In the case of `COCC1OC(=O)C(=CN(CCCN(C)C)CCCN(C)C)C2=C(O)C(=O)C3=C(C(OC(C)=O)CC4(C)C(O)CCC34)C21C` (stereo not shown) [Compound 21, Acetic acid 4-{[bis-(3-dimethylamino-propyl)-amino]-methylene}-6,17-dihydroxy-1-methoxymethyl-10,13-dimethyl-3,7-dioxo-1,3,4,7,10,11,12,13,14,15,16,17-dodecahydro-2-oxa-cyclopenta[a]phenanthren-11-yl ester], the IC50 in assay [1] (Table 2) was 0.1 mg/L (≈ 0.162 µM); in assay [2] (Table 2), 12 mg/L (≈ 19.4 µM); in the assay with PI3K, 0.022 µM; against Human TOR (Table 2) it was 3.56 µM; in assay [3] (Table 2), 3.9 mg/L (≈ 6.31 µM); in assay [4] (Table 2), 11 mg/L (≈ 17.8 µM). The molecule further had an IC50 in assay [5] (Table 2) of 0.16 mg/L (≈ 0.259 µM).
On to `COCC1OC(=O)C(=CN2CCC(C(=O)OC)CC2)C2=C(O)C(=O)C3=C(C(OC(C)=O)CC4(C)C(O)CCC34)C21C` (stereo not shown) [Compound 22, 1-(11-Acetoxy-6,17-dihydroxy-1-methoxymethyl-10,13-dimethyl-3,7-dioxo-1,7,10,11,12,13,14,15,16,17-decahydro-2-oxa-cyclopenta[a]phenanthren-4-ylidenemethyl)-piperidine-4-carboxylic acid methyl ester], for which the half-inhibitory concentration (IC50) was 0.1 mg/L (≈ 0.174 µM) in assay [1] (Table 2); 17 mg/L (≈ 29.6 µM) in assay [2] (Table 2); 0.052 µM in the assay with PI3K; 1.69 µM at Human TOR (Table 2); 3.5 mg/L (≈ 6.1 µM) in assay [3] (Table 2); 18 mg/L (≈ 31.4 µM) in assay [4] (Table 2). This molecule also showed an IC50 in assay [5] (Table 2) of 0.29 mg/L (≈ 0.506 µM).
For `COCC1OC(=O)C(=CN2CCC(=O)CC2)C2=C(O)C(=O)C3=C(C(OC(C)=O)CC4(C)C(O)CCC34)C21C` (stereo not shown) [Compound 44, Acetic acid 6,17-dihydroxy-1-methoxymethyl-10,13-dimethyl-3,7-dioxo-4-(4-oxo-piperidin-1-ylmethylene)-1,3,4,7,10,11,12,13,14,15,16,17-dodecahydro-2-oxa-cyclopenta[a]phenanthren-11-yl ester], the IC50 is 0.02 mg/L (≈ 0.0378 µM) in assay [1] (Table 2); 0.0602 µM in the assay on PI3K; 1.11 µM at Human TOR (Table 2); 3 mg/L (≈ 5.66 µM) in assay [3] (Table 2); 0.37 mg/L (≈ 0.699 µM) in assay [5] (Table 2).
For `CCN(C=C1C(=O)OC(COC)C2(C)C3=C(C(=O)C(O)=C12)C1CCC(O)C1(C)CC3)CCN(C)C` (stereo not shown) [Compound 45, 4-{[(2-Dimethylamino-ethyl)-ethyl-amino]-methylene}-6,17-dihydroxy-1-methoxymethyl-10,13-dimethyl-10,11,12,13,14,15,16,17-octahydro-1H,4H-2-oxa-cyclopenta[a]phenanthrene-3,7-dione], in that order: 0.1 mg/L (≈ 0.205 µM), 0.369 µM, over 20.5 µM, 5 mg/L (≈ 10.2 µM) and 0.65 mg/L (≈ 1.33 µM).
`CCN(C=C1C(=O)OC(COC)C2(C)C1=C(O)C(=O)C1=C2C(OC(C)=O)CC2(C)C(O)CCC12)CCN(C)C` (stereo not shown) [Compound 46, Acetic acid 4-{[(2-dimethylamino-ethyl)-ethyl-amino]-methylene}-6,17-dihydroxy-1-methoxymethyl-10,13-dimethyl-3,7-dioxo-1,3,4,7,10,11,12,13,14,15,16,17-dodecahydro-2-oxa-cyclopenta[a]phenanthren-11-yl ester]: the concentration for half-maximal inhibition (IC50) is 0.02 mg/L (≈ 0.0366 µM) in assay [1] (Table 2); 0.0051 µM in the assay with PI3K; 0.878 µM at Human TOR (Table 2); 3.3 mg/L (≈ 6.04 µM) in assay [3] (Table 2); 0.65 mg/L (≈ 1.19 µM) in assay [5] (Table 2).
As to `COCC1OC(=O)C(=CN2CCC(N3CCCCC3)CC2)C2=C(O)C(=O)C3=C(C(OC(C)=O)CC4(C)C(O)CCC34)C21C` (stereo not shown) [Compound 47, Acetic acid 4-[1,4′]bipiperidinyl-1′-ylmethylene-6,17-dihydroxy-1-methoxymethyl-10,13-dimethyl-3,7-dioxo-1,3,4,7,10,11,12,13,14,15,16,17-dodecahydro-2-oxa-cyclopenta[a]phenanthren-11-yl ester], the IC50 in assay [1] (Table 2) is 0.05 mg/L (≈ 0.0835 µM); with PI3K it was 0.0633 µM; against Human TOR (Table 2), 0.568 µM; in assay [3] (Table 2), 5.8 mg/L (≈ 9.69 µM); in assay [5] (Table 2) it was 0.9 mg/L (≈ 1.5 µM).
For `COCC1OC(=O)C(=CN2CCOCC2)C2=C(O)C(=O)C3=C(C(OC(C)=O)CC4(C)C(O)CCC34)C21C` (stereo not shown) [Compound 48, Acetic acid 6,17-dihydroxy-1-methoxymethyl-10,13-dimethyl-4-morpholin-4-ylmethylene-3,7-dioxo-1,3,4,7,10,11,12,13,14,15,16,17-dodecahydro-2-oxa-cyclopenta[a]phenanthren-11-yl ester], the IC50 in assay [1] (Table 2) is 0.02 mg/L (≈ 0.0386 µM); in the assay with PI3K it was 0.0361 µM; at Human TOR (Table 2) it was 0.831 µM; in assay [3] (Table 2), 3 mg/L (≈ 5.8 µM); in assay [5] (Table 2) it was 0.5 mg/L (≈ 0.966 µM).
As for `CCN(/C=C1/C(=O)O[C@H](COC)[C@@]2(C)C1=C(O)C(=O)C1=C2[C@H](O)C[C@]2(C)[C@@H](O)CC[C@@H]12)CC` [Compound 50, (1E,4S,4aR,5R,6aS,7S,9aR)-1-[(diethylamino)methylene]-5,7,11-trihydroxy-4-(methoxymethyl)-4a,6a-dimethyl-4a,5,6,6a,7,8,9,9a-octahydroindeno[4,5-h]isochromene-2,10(1H,4H)-dione], the IC50 is over 0.1 mg/L in assay [1] (Table 2), 7.58 µM in the assay on PI3K, 2.5 mg/L (≈ 5.42 µM) in assay [3] (Table 2) and 0.25 mg/L (≈ 0.542 µM) in assay [5] (Table 2).
